Reference: patent publication US20180353501A1 (Arvinas, Inc., priority 2017, published 2018)

Test system: p38α and p38δ mRNA
Assay: Quantitative real-time PCR in MDA-MB-231 cells
Format: cell-based
Details: 250 nM, 24 hours
Method: FIGS. 13A, 13B, 13C, and 13D. Exemplary compounds 50 and 46 degrade p38 isoforms in a manner that is rapid, sustained, and proteasome-dependent. (A) MDA-MB-231 cells were either pre-treated or not with the proteasome inhibitor epoxomicin (1 μM) or the neddylation inhibitor MLN4924 (1 μM) for 30 minutes and subsequently treated with either vehicle (DMSO), exemplary compound 50 (250 nM), or exemplary compound 46 (250 nM) for 6 hours. (B) Quantitative real-time PCR was performed after 24 hours of treatment with either vehicle (DMSO), exemplary compound 50 (250 nM), or exemplary compound 46 (250 nM) in MDAMB-231 cells. […]
MDA-MB-231 cells were plated at 3×10^5 cells per well in a 6-well dish, allowed to adhere, and were treated with either vehicle (DMSO) or PROTAC (250 nM) for 24 hours. […] RNA pellet was washed twice with 75% EtOH and allowed to air dry for 15 minutes, after which RNA was dissolved in 25 μL of nuclease-free H2O. cDNA was synthesized from 4 μg of total RNA per condition according to the manufacturer's protocol (Applied Biosystems) and real-time PCR was performed with 800 nM primers, diluted with 4 μL SYBR Green Reaction Mix (Applied Biosystems). qRT-PCR samples were performed and analyzed in triplicate, from two independent experiments. […]

SMILES	change in mRNA for either p38 isoform
COc1cc2c(Oc3ccc(NC(=O)C4(C(=O)Nc5ccc(F)cc5)CC4)cc3F)ccnc2cc1OCCOCCOCCOc1cc(-c2scnc2C)ccc1CNC(=O)[C@@H]1C[C@@H](O)CN1C(=O)[C@H](C(C)C)N1Cc2ccccc2C1=O [compound 46]	no significant changes in mRNA
COc1cc2c(Oc3ccc(NC(=O)C4(C(=O)Nc5ccc(F)cc5)CC4)cc3F)ccnc2cc1OCCCCOCCCCOCC(=O)N[C@H](C(=O)N1C[C@H](O)C[C@H]1C(=O)NCc1ccc(-c2scnc2C)cc1)C(C)(C)C [compound 50, N-(3-fluoro-4-((7-(4-(4-(2-(((S)-1-((2S,4R)-4-hydroxy-2-((4-(4-methylthiazol-5-yl)benzyl)carbamoyl)pyrrolidin-1-yl)-3,3-dimethyl-1-oxobutan-2-yl)amino)-2-oxoethoxy)butoxy)buto-xy)-6-methoxyquinolin-4-yl)oxy)phenyl)-N-(4-fluorophenyl)cyclopropane-1,1-dicarboxa-mide]	no significant changes in mRNA
